{
  "source": "patent US12616697B2",
  "about": "“Methods of treatment with myosin modulator” (MyoKardia, Inc., priority 2020, dated 2026)",
  "test_system": "subjects with symptomatic non-obstructive HCM (nHCM)",
  "experiment": "[…]-HCM Phase 2 randomized, double-blind, placebo-controlled, concentration-guided study",
  "format": "in vivo, human",
  "set-up": "Overall KCCQ Summary Score, mean change / Clinical KCCQ Summary Score, mean change / Overall KCCQ Summary Score / Clinical KCCQ Summary Score: scale not given here",
  "conditions": "for LVEF, mean change: Week 16",
  "text": "This is a Phase 2 trial designed to assess the safety and tolerability of a range of exposures over 16 weeks of treatment in subjects with symptomatic, non-obstructive HCM. All study subjects were required to be diagnosed with non-obstructive HCM, with left ventricular wall thickness either ≥15 mm or ≥13 mm with a family history of HCM, LVEF≥55%, NYHA classifications of Class II or III, and NT-proBNP levels of greater than 300 pg/mL at rest. Baseline characteristics, such as age, weight, gender, pathogenic mutation status, background beta blocker use, NYHA classification and exercise capacity were approximately evenly distributed between active and placebo arms.\nThis double-blind study enrolled 59 individuals with nHCM (Left ventricular outflow tract gradient<30 mmHg; resting or provoked), NYHA Class II or III, and LVEF≥55%. Subjects were randomized 1:1:1 to one of two target plasma drug concentrations (Group 1: ˜200 ng/mL and Group 2: ˜500 ng/mL) or placebo for 16 weeks, followed by an 8-week washout. […] Predefined criteria, including LVEF (LVEF≤45%), guided study drug discontinuation if indicated. Cardiopulmonary exercise testing was performed at baseline and Week 16 to assess the impact on exercise capacity.\nDose adjustments will be based on PK parameters. Assessments include safety, standardized cardiopulmonary exercise testing (CPET) with measurement of peak oxygen consumption, echocardiography to evaluate left ventricular ejection fraction (LVEF) and parameters of diastolic function, symptoms, quality of life, daily step counts, and NT-proBNP at rest and after exercise. In addition, subjects may consent to hypertrophic cardiomyopathy genotyping and pharmacogenetic sampling.\nCardiac Troponin I levels were evaluated on plasma and serum samples of subjects at baseline and at various time points in the trial (Abbott Architect Stat Troponin-I assay (Ref. 2K41)). Cardiac Troponin T levels were evaluated on plasma and serum samples of subjects at baseline and at various time points in the trial (Roche Elecsys Troponin T hs assay) (Ref. 08469873190) performed on a cobas e 801 analyzer). NT-proBNP levels were evaluated on plasma samples using the Roche Elecsys proBNPII assay (Ref. 07027664190) on a cobas e 801 analyzer.\nSubjects were randomized via an interactive response system to 3 groups in a 1:1:1 ratio: 2 active treatment groups and 1 matching placebo.\n5 mg QD was used as the starting dose for the study. All subjects in the active treatment groups started on 5 mg QD. […] PK modeling was used to guide blinded dose adjustment at the Week 6 visit, based on the plasma concentrations collected at Week 4. Subjects in the placebo group underwent the same assessments in order to preserve the blind. […] Subjects were instructed to take the drug under fasting conditions, at approximately the same time each day, and with 8 ounces of water.\nTo achieve the target concentration, if a subject's Week 4 concentration was >450 ng/mL, the subject's dose was decreased to 2.5 mg QD; if Week 4 concentration was 110-450 ng/mL, the dose was maintained at 5 mg QD; and if Week 4 concentration was <110 ng/mL, the dose was increased to 10 mg QD.\nSubjects were monitored for adverse events (AE), including high blood plasma concentration, systolic dysfunction, QT prolongation, and LVEF decrease. If any of the following thresholds were hit PK 1000 or more, QTcF 500, or LVEF 45%, the subjects were discontinued on drug. Specifically, high blood plasma concentration was defined as blood plasma concentration greater than or equal to 1000 ng/mL; QT prolongation was defined as QTcF greater than or equal to 500 ms; and LVEF shortening was defined as LVEF less than or equal to 45% (including serious adverse event (SAE) for LVEF less than or equal to 30%).\nEfficacy and pharmacodynamics assessments were also made. Resting transthoracic echocardiography measurements were taken at Weeks 4, 8, 12 and 16. […]",
  "key": {"[1]": {"conditions": "Elevated Troponin subgroup, Mean Difference vs placebo"}, "[2]": {"conditions": "Elevated Troponin subgroup, mean change from baseline"}, "[3]": {"conditions": "Subgroup with Elevated E/e′ at Baseline, Difference mavacamten vs placebo"}, "[4]": {"conditions": "Subgroup with Elevated E/e′ at Baseline, pooled, mean change from baseline"}},
  "data": [
    {"smiles": "CC(C)n1c(=O)cc(N[C@@H](C)c2ccccc2)[nH]c1=O", "note": "[mavacamten, (S)-3-Isopropyl-6-((1-phenylethyl)amino)pyrimidine-2, 4(1H,3H)-dione]", "values": [
      {"measurement": "Composite Functional Endpoint: Met endpoint, either type, %", "setting": "Combined Subgroup (elevated cTnI or E/e′ average >14), Pooled", "value": 33, "unit": "%"},
      {"measurement": "Composite Functional Endpoint: Met endpoint, either type, %", "setting": "Combined Subgroup, Group 1 ~200 ng/mL", "value": "(33.3) %"},
      {"measurement": "Composite Functional Endpoint: Met endpoint, either type, %", "setting": "Combined Subgroup, Group 2 ~500 ng/mL", "value": "(33.3) %"},
      {"measurement": "Clinical KCCQ Summary Score", "setting": "[1]", "value": 8.8},
      {"measurement": "NYHA Class", "setting": "[1]", "value": "−0.3"},
      {"measurement": "Peak VO2", "setting": "[1]", "value": 0.162, "unit": "L/h/kg"},
      {"measurement": "Serum Troponin I (cTnI)", "setting": "[1]", "value": -0.083, "unit": "ng/mL"},
      {"measurement": "Clinical KCCQ Summary Score", "setting": "[2]", "value": 6.9},
      {"measurement": "NYHA Class", "setting": "[2]", "value": "−0.5"},
      {"measurement": "Overall KCCQ Summary Score", "setting": "[2]", "value": 6.4},
      {"measurement": "Serum Troponin I (cTnI)", "setting": "[2]", "value": -0.12, "unit": "ng/mL"},
      {"measurement": "Clinical KCCQ Summary Score, mean change", "setting": "ITT, Group 1 ~200 ng/mL", "value": 0.11},
      {"measurement": "Lateral e′, mean change", "setting": "ITT, Group 1 ~200 ng/mL", "value": 0.34, "unit": "cm/s"},
      {"measurement": "NYHA Class, mean change", "setting": "ITT, Group 1 ~200 ng/mL", "value": "−0.6"},
      {"measurement": "Overall KCCQ Summary Score, mean change", "setting": "ITT, Group 1 ~200 ng/mL", "value": 0.35},
      {"measurement": "Peak VO2, mean change", "setting": "ITT, Group 1 ~200 ng/mL", "value": 0.0216, "unit": "L/h/kg"},
      {"measurement": "Septal e′, mean change", "setting": "ITT, Group 1 ~200 ng/mL", "value": 0.64, "unit": "cm/s"},
      {"measurement": "LVEF, mean change", "setting": "ITT, Group 1 ~200 ng/mL", "value": "−2.30", "unit": "%"},
      {"measurement": "LVEDV, mean change", "setting": "ITT, Group 2 ~500 ng/mL", "value": 6.50, "unit": "mL"},
      {"measurement": "NYHA Class, mean change", "setting": "ITT, Group 2 ~500 ng/mL", "value": "−0.3"},
      {"measurement": "Peak VO2, mean change", "setting": "ITT, Group 2 ~500 ng/mL", "value": 0.0072, "unit": "L/h/kg"},
      {"measurement": "Septal e′, mean change", "setting": "ITT, Group 2 ~500 ng/mL", "value": 1.60, "unit": "cm/s"},
      {"measurement": "Lateral e′, mean change", "setting": "ITT, Pooled", "value": 0.94, "unit": "cm/s"},
      {"measurement": "NYHA Class, mean change", "setting": "ITT, Pooled", "value": "−0.4"},
      {"measurement": "Peak VO2, mean change", "setting": "ITT, Pooled", "value": 0.0132, "unit": "L/h/kg"},
      {"measurement": "LVEF, mean change", "setting": "ITT, Pooled", "value": "−4.1", "unit": "%"},
      {"measurement": "Clinical KCCQ Summary Score", "setting": "[3]", "value": 4.1},
      {"measurement": "LVEDVi", "setting": "[3]", "value": 3.9, "unit": "mL/m^2"},
      {"measurement": "NYHA Class", "setting": "[3]", "value": 0.0},
      {"measurement": "Overall KCCQ Summary Score", "setting": "[3]", "value": 0.4},
      {"measurement": "Peak VO2", "setting": "[3]", "value": 0.114, "unit": "L/h/kg"},
      {"measurement": "cTnI", "setting": "[3]", "value": -0.07, "unit": "ng/mL"},
      {"measurement": "Clinical KCCQ Summary Score", "setting": "[4]", "value": 4.6},
      {"measurement": "LVEDVi", "setting": "[4]", "value": 2.8, "unit": "mL/m^2"},
      {"measurement": "NYHA Class", "setting": "[4]", "value": "−0.4"},
      {"measurement": "Overall KCCQ Summary Score", "setting": "[4]", "value": 4.7},
      {"measurement": "Peak VO2", "setting": "[4]", "value": 0.072, "unit": "L/h/kg"},
      {"measurement": "cTnI", "setting": "[4]", "value": -0.09, "unit": "ng/mL"},
      {"measurement": "Serious adverse events (SAEs), subjects", "setting": "subjects receiving mavacamten, placebo 21%", "value": 10, "unit": "%"},
      {"measurement": "participants with a decrease in LVEF to ≤45%, %", "setting": "weeks 11-12, active treatment", "value": 12.5, "unit": "%"}
    ]}
  ]
}
